The text below walks through data of patent US4755508A, “Benzodiazepine analogs and use as antogonists of gastrin and cholecystokinin” (Merck & Co., Inc., priority 1987, dated 1988).

One experiment has as its system CCK receptor. Conditions: structure-function studies; cited from earlier work.
Experiment [1] concerns the target T1, CCK receptor (rat pancreas membranes) (Rattus norvegicus, UniProt P30551).
T1 construct: The whole pancreas was dissected free of fat tissue and was homogenized; from tissue; host or cells: pancreas of male Sprague-Dawley rats (membranes)
T1 sequence (P30551 1-444): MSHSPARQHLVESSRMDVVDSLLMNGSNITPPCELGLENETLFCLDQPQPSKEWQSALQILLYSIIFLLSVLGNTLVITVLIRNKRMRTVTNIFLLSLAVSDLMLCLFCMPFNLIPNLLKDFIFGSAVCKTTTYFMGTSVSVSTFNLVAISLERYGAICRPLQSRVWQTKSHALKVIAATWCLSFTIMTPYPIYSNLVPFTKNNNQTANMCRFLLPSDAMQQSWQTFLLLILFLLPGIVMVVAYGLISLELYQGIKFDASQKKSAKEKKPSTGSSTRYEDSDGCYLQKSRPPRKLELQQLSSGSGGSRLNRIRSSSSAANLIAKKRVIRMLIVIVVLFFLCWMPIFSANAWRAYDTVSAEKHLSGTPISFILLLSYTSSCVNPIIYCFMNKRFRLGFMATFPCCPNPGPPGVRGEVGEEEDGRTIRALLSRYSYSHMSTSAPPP
Description: 125I-CCK receptor binding (pancreas). Particulars: for effect on the 125I-CCK receptor binding assay: added as protease inhibitor. On the procedure:
CCK-33 was radiolabeled with ^125 I-Bolton Hunter reagent (2000 Ci/mmole) as described by Sankara et al. (J. Biol. Chem. 254: 9349-9351, 1979). Receptor binding was performed according to Innis and Snyder (Proc. Natl. Acad. Sci. 77: 6917-6921, 1980) with the minor modification of adding the additional protease inhibitors, phenylmethane sulfonyl fluoride and o-phenanthroline. The latter two compounds have no effect on the ^125 I-CCK receptor binding assay.
Male Sprague-Dawley rats (200-350 g) were sacrificed by decapitation. The whole pancreas was dissected free of fat tissue and was homogenized in 20 volumes of ice-cold 50 mM, Tris HCl (pH 7.7 at 25° C.) with a Brinkmann Polytron PT 10. The homogenates were centrifuged at 48,000 g for 10 min. Pellets were resuspended in Tris Buffer, centrifuged as above and resuspended in 200 volumes of binding assay buffer (50 mM Tris HCl, pH 7.7 at 25° C., 5 mM dithiothrietol, 0.1 mM bacitracin, 1.2 mM phenylmethane sulfonyl fluoride and 0.5 mM o-phenanthroline). […] All assays were run in duplicate or triplicate. The reaction mixtures were incubated at 37° C. for 30 minutes and centrifuged in a Beckman Microfuge (4 minutes) immediately after adding 1 ml of ice-cold incubation buffer. The supernatant was aspirated and discarded, pellets were counted with a Beckman gamma 5000. For Scatchard analysis (Ann. N.Y. Acad. Sci. 51: 660, 1949), ^125 I-CCK-33 was progressively diluted with increasing concentrations of CCK-33

In experiment [2] the target is T2, CCK receptor (guinea pig cerebral cortex) (Cavia porcellus, UniProt H0VZC5).
T2 construct: Cerebral cortex was dissected and used as a receptor source; from tissue; host or cells: cerebral cortex of male Hartley guinea pigs (membranes)
Description: 125I-CCK receptor binding (brain). Conditions: 125I-CCK-33, guinea pig cerebral cortex, 25° C., 2 hours. On the procedure: CCK-33 was radiolabeled and the binding was performed according to the description for the pancreas method with modifications according to Saito et al., J. Neurochem. 37, 483-490, 1981.
Male Hartley guinea pigs (300-500 g) were sacrificed by decapitation and the brains were removed and placed in ice-cold 50 mM, Tris HCl plus 7.58 g/l Trizma-7.4 (pH 7.4 at 25° C.). Cerebral cortex was dissected and used as a receptor source. Each gram of fresh guinea pig brain tissue was homogenized in 10 ml of Tris Trizma buffer with a Brinkman polytron PT-10. The homogenates were centrifuged at 42,000 g for 15 min. […] All assays were run in duplicate or triplicate. The reaction mixtures were incubated at 25° C. for 2 hours and centrifuged in a Beckman Microfuge (4 minutes) immediately after adding 1 ml of ice-cold incubation buffer. The supernatant was aspirated and discarded, pellets were counted with a Beckman gamma 5000.

In another experiment the target is T3, gastrin receptor (Cavia porcellus, UniProt H0VZC5).
T3 construct: Gastric mucosa from guinea pigs (300-500 g body weight, male Hartley) were washed thoroughly and minced; from tissue; host or cells: gastric mucosal glands of male Hartley guinea pigs
Description: Gastrin receptor binding in guinea pig gastric glands. Conditions: guinea pig gastric mucosal glands. On the procedure:
Gastrin antagonist activity of compounds of Formula I is determined using the following assay: […]
GASTRIN RECEPTOR BINDING IN GUINEA PIG GASTRIC GLANDS
Guinea pig gastric mucosal glands were prepared by the procedure of Berglingh and Obrink Acta Physiol. Scand. 96: 150 (1976) with a slight modification according to Praissman et al. C. J. Receptor Res. 3: (1983). Gastric mucosa from guinea pigs (300-500 g body weight, male Hartley) were washed thoroughly and minced with fine scissors in standard buffer consisting of the following: 130 mM NaCl, 12 mM NaHCO3, 3 mM NaH2 PO4, 3 mM Na2 HPO4, 3 mM K2 HPO4, 2 mM MgSO4, 1 mM CaCl2, 5 mM glucose and 4 mM L-glutamine, 25 mM HEPES at pH 7.4. The minced tissues were washed and then incubated in a 37° C. shaker bath for 40 minutes with the buffer containing 0.1% collagenase and 0.1% BSA and bubbled with 95% O2 and 5% CO2. The tissues were passed twice through a 5 ml glass syringe to liberate the gastric glands, and then filtered through 200 mesh nylon. The filtered glands were centrifuged at 270 g for 5 minutes and washed twice by resuspension and centrifugation.

The subject of another experiment is gastrin. Particulars: in vitro; cited from earlier work.
[3] abbreviates: 125I-CCK-33, rat pancreas, 37° C., 30 minutes, read-out: IC50 (uM) 125I-CCK Pancreas.

Entries after “also recorded” stand apart in the source; their conditions may differ. Read-outs that look alike come from different tables or passages of the source. Where a SMILES comes first, the peptide text is derived from it. [ ]: non-standard residue; d: D form. The star is where a group is joined. sY = N[C@@H](Cc1ccc(OS(=O)(=O)O)cc1)C(=O)O; Cbz = O=C(OCc1ccccc1)*; Boc = CC(C)(C)OC(=O)*

T2 sequence (H0VZC5 entry or part of it): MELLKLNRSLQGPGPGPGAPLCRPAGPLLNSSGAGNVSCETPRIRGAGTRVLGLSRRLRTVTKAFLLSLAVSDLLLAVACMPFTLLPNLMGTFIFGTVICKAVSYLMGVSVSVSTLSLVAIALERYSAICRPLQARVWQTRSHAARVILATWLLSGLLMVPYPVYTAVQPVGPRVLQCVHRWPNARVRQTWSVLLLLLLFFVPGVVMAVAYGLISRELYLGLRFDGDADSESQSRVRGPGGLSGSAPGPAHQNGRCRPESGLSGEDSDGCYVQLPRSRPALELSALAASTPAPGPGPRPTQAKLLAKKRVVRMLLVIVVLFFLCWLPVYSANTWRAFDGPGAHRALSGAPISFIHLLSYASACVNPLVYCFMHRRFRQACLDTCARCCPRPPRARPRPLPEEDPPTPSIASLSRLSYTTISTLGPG
T3 sequence (H0VZC5 entry or part of it): as above

`CSCC[C@H](NC(=O)OC(C)(C)C)C(=O)N[C@@H](CC(=O)O)C(=O)N[C@@H](Cc1ccccc1)C(N)=O` [Boc-Met-Asp-Phe-NH2] (Boc-Met-Asp-Phe-NH2): in the experiment with CCK receptor, the CCK antagonist activity result was “can function as CCK antagonists”.
For the compound `CSCC[C@H](NC(=O)[C@H](Cc1ccc(OS(=O)(=O)O)cc1)NC(=O)OCc1ccccc1)C(=O)NCC(=O)N[C@@H](Cc1c[nH]c2ccccc12)C(=O)N[C@@H](CCSC)C(=O)N[C@@H](CC(=O)O)C(N)=O` [Cbz-Tyr(SO3 H)-Met-Gly-Trp-Met-Asp-NH2] (Cbz-[sY]MGWMD-NH2), the CCK antagonist activity entry in the experiment on CCK receptor is listed as “can function as CCK antagonists; also recorded: partial agonist”.
In the case of `Fc1ccccc1C1=N[C@H](Cc2c[nH]c3ccccc23)C(Nc2ccccc2)=Nc2ccccc21` [Example 1, 2-Phenylamino-3(R)-(3'-indolyl)methyl-5-(2'-fluorophenyl)-2H-1,4-benzodiazepine], the values for the IC50 in experiment [1] (setting [3]) and in experiment [2] were 34 µM and 100 µM, respectively.
`NC1=Nc2ccccc2C(c2ccccc2F)=N[C@@H]1Cc1c[nH]c2ccccc12` [Example 3, 2-Amino-3(R)-(3'-indolyl)methyl-5-(2'-fluorophenyl)-2H-1,4-benzodiazepine] registered an IC50 in experiment [1] of 1.7 µM.
Regarding `CNC1=Nc2ccccc2C(c2ccccc2F)=N[C@@H]1Cc1c[nH]c2ccccc12` [Example 4, 2-Methylamino-3(R)-(3'-indolyl)methyl-5-(2'-fluorophenyl)-2H-1,4-benzodiazepine], the IC50 in experiment [1] (setting [3]) was 4.5 µM; in experiment [2], greater than 100 µM; on gastrin receptor, 67 µM.
Turning to `CCOC(=O)CNC1=Nc2ccccc2C(c2ccccc2F)=N[C@@H]1Cc1c[nH]c2ccccc12` [Example 5, 2-Ethoxycarbonylmethylamino-3(R)-(3'-indolyl)methyl-5-(2'-fluorophenyl)-2H-1,4-benzodiazepine], the IC50 in experiment [1] (setting [3]) turned out to be 23 µM; in experiment [2] it was 49 µM.
For `N#CNC1=Nc2ccccc2C(c2ccccc2F)=N[C@@H]1Cc1c[nH]c2ccccc12` [Example 6, 2-Cyanoamino-3(R)-(3'-indolyl)methyl-5-(2'-fluorophenyl)-2H-1,4-benzodiazepine], the IC50 worked out at 2 µM in experiment [1] (setting [3]) and 100 µM in experiment [2].
Regarding `CCCNC1=Nc2ccccc2C(c2ccccc2F)=N[C@@H]1Cc1c[nH]c2ccccc12` [Example 7, 2-Propylamino-3(R)-(3'-indolyl)methyl-5-(2-fluorophenyl)-2H-1,4-benzodiazepine], the values for the IC50 in experiment [1] and in experiment [2] were 2.7 µM and greater than 100 µM, respectively.
For the compound `O=C(O)CNC1=Nc2ccccc2C(c2ccccc2F)=N[C@@H]1Cc1c[nH]c2ccccc12` [Example 8, 2-Carboxymethylamino-3(R)-(3'-indolyl)methyl-5-(2'-fluorophenyl)-2H-1,4-benzodiazepine], the IC50 in experiment [1] (setting [3]) came out at 3.6 µM; in experiment [2] it was 31 µM; on gastrin receptor, 2.7 µM.
Taken in the same sequence, the figures for `O=C(O)CNC1=Nc2ccccc2C(c2ccccc2)=NC1NC(=O)Nc1ccc(Cl)cc1` (centres unmarked) [Example 9, N-[3-(((4-Chlorophenyl)aminocarbonyl)amino)-5-phenyl-3H-1,4-benzodiazepin-2-yl]-glycine] were 0.069 µM, 0.11 µM and 0.032 µM.
As to `CCOC(=O)CNC1=Nc2ccccc2C(c2ccccc2)=NC1NC(=O)Nc1ccc(Cl)cc1` (centres unmarked) [Example 10, N-[3-(((4-Chlorophenyl)aminocarbonyl)amino)-5-phenyl-3H-1,4-benzodiazepin-2-yl]-glycine ethyl ester], in experiment [1] (setting [3]), the IC50 worked out at 1.4 µM.
Consider `CSCC[C@H](N)C(=O)N[C@@H](CC(=O)O)C(=O)N[C@@H](Cc1ccccc1)C(N)=O` [Met-Asp-Phe-NH2] (H-Met-Asp-Phe-NH2), for which the CCK antagonist activity result with CCK receptor is reported as “can function as CCK antagonists”.
Regarding `CCCC(=O)Nc1nc2c(ncn2[C@@H]2O[C@@H]3COP(=O)(O)O[C@H]3[C@H]2OC(=O)CCC)c(=O)[nH]1` [dibutyryl cyclic GMP], in the experiment with CCK receptor, the CCK antagonist activity result is listed as “the most potent”.
`c1cnc2c(c1)ccc1cccnc12` [o-phenanthroline, reference compound]: in experiment [1], the “effect on the 125I-CCK receptor binding assay” value is listed as “no effect”.
`O=S(=O)(F)Cc1ccccc1` [phenylmethane sulfonyl fluoride, reference compound]: the “effect on the 125I-CCK receptor binding assay” value in experiment [1] is listed as “no effect”.
Take `CCCN(CCC)C(=O)C(CCC(=O)O)NC(=O)c1ccccc1` (centres unmarked) [proglumide]: the gastrin antagonist activity result in the experiment with gastrin is reported as “very weak in vitro antagonists”.

Broadly, the IC50 is the concentration that gives 50% inhibition.
